We go through 24 compounds from patent publication EP4818177A1, “TRICYCLIC DERIVATIVE INHIBITOR, AND PREPARATION METHOD AND USE THEREFOR” (Shanghai Hansoh Biomedical Co., Ltd., priority 2023, dated 2025).

The structures appear in SMILES notation.

Tested on in one data set: not listed separately
Description: Pharmacokinetics in rats (plasma) after oral administration. The following applies: male, SD, rat, 5 mg/kg.
Description: Test Example 4: Determination of the pharmacokinetics of the compounds of the present invention in rats (plasma) after oral administration.
Study objective: SD rats were used as test animals to study the pharmacokinetic behaviour of the following example compounds in rats (plasma) after oral administration at a dose of 5 mg/kg. […] Test scheme 2.1 Test drugs: Vehicle formula: 0.5% CMC-Na (1% Tween 80); the examples of the present invention, prepared in house. 2.2 Test animals: 3 SD rats per group, male, purchased from Shanghai Bikai Keyi Biotechnology Co., Ltd., with animal license number (SCXK (Shanghai) 2018-0006, No.20180006037467). 2.3 Administration: 3 SD rats per group, male, were fasted overnight and then respectively administered PO at a dose of 5 mg/kg and a volume of 10 mL/kg. 2.4 Sample collection: 0.2 mL of blood was collected from the jugular vein of rats before administration and at 0, 0.25, 0.5, 1, 2, 4, 6, 8 and 24 h after administration, and placed in EDTA-K2test tubes, and the test tubes were centrifuged at 6,000 rpm at 4°C for 6 min to separate the plasma, which was stored at -80°C. The animals were fed 4 h after administration. 2.5 Sample treatment • 1) 160 uL of acetonitrile was added to 40 uL of plasma sample for precipitation, and after mixing, the mixture was centrifuged at 3,500 × g for 5-20 minutes. • 2) 100 uL of the treated supernatant solution was taken for LC/MS/MS analysis to determine the concentration of the test compounds. 2.6 Liquid phase analysis • Liquid phase conditions: Shimadzu LC-20AD pump; • Mass spectrometry conditions: AB Sciex API 4000 mass spectrometer; • Chromatographic column: phenomenex Gemiu 5 um C18 50 × 4.6 mm; • Mobile phase: solution A: 0.1% formic acid in water, solution B: methanol; • flow rate: 1.0 mL/min; Elution time: 0-4.0 min, with eluents as follows:
Experimental results and analysis: The main pharmacokinetic parameters were calculated using WinNonlin 8.2.
As a reminder, the AUC(0-inf) is total exposure, with the tail of the curve extrapolated. A higher AUC(0-inf) goes with high exposure. The Cmax is the peak of the concentration-time curve. For orientation: MRT inf means the average time that molecules of a dose stay in the body. As a reminder, the Tmax is the time at which the peak concentration occurs. The term half-life denotes the time needed for the level to fall by half in the phase considered. Take `Nc1nc2cnc(C(=O)N(N)C3COCc4c3ccn3c(C(F)(F)F)cnc43)cc2c2c1COC2` (stereo not shown) [Example 424, 4-Amino-N-(3-(trifluoromethyl)-7,10-dihydro-8H-imidazo[1,2-a]pyrano[3,4-c]pyridin-7-yl)-1,3-dihydrofuro[3,4-c][1,7]naphthyridine-8-carbohydrazide]: the AUC(0-inf) was determined as 2380 ng·h/mL, the Cmax was determined as 226 ng/mL, the MRT inf came out at 8.9 h and the Tmax is 2.7 h. The same compound showed a half-life of 366 min.

The next data set deals with T1, PRMT5/MEP50-MTA protein complex (Homo sapiens, UniProt O14744).
T1 construct: purchased Viva Biotech
T1 sequence (O14744 whole entry): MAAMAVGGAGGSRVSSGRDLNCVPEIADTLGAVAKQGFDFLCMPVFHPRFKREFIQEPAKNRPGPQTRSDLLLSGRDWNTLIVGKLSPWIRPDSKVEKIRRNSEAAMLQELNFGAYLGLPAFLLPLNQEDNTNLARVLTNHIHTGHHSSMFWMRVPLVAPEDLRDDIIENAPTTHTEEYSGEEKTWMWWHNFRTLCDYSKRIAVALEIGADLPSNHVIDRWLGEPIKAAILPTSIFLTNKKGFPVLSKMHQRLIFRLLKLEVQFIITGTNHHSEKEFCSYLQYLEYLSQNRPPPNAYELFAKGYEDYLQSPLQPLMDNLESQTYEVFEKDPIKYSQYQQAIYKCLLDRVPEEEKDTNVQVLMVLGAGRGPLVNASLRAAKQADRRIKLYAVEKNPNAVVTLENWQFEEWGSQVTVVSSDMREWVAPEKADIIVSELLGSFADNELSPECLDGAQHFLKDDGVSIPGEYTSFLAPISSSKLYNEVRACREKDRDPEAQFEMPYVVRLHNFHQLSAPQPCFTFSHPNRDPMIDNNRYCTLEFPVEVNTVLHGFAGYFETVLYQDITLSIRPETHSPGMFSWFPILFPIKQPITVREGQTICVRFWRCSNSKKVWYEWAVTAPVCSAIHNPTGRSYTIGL
T1 sequence (Q9BQA1 whole entry partner): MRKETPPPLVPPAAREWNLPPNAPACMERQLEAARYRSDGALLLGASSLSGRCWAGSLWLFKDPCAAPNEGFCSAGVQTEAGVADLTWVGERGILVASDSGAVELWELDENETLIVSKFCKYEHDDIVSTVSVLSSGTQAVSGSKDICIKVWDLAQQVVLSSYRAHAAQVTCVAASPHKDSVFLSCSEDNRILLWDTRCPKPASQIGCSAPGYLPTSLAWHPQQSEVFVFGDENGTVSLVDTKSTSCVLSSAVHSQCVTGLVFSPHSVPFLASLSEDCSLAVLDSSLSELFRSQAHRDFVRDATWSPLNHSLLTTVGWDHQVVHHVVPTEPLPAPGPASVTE
Description: Thermal shift assay: change in melting temperature of the PRMT5/MEP50-MTA protein complex. Format: binding. The following applies: compound 8 µM, PRMT5/MEP50 2 µM, MTA 2 µM; Tm minus DMSO vehicle control. From the text:
Test Example 1: Determination of the ability of the compounds of the present invention to improve the thermal stability (melting temperature) of the PRMT5/MEP50-MTA protein complex.
1. Experimental objective: The objective of this test example is to determine the ability of the compound to improve the thermal stability of the PRMT5/MEP50-MTA protein complex, resulting in an increase in the protein melting temperature. 2. Experimental instruments: Quantitative PCR instrument (Quantstudio6 Flex) was purchased from Life Technologies; pipettes were purchased from Eppendorf or Rainin. 3. Experimental reagents and consumables: PRMT5/MEP50 protein was prepared by Viva Biotech; HEPES was purchased from Thermo Fisher Scientific (Cat. No. 15630080); DTT was purchased from Sigma (Cat. No. 43816-10ml); sodium chloride was purchased from Invitrogen (Cat. No. AM9760G); Protein Thermal Shift™ Dye Kit was purchased from Thermo Fisher Scientific (Cat. No. 4461146); methylthioadenosine (MTA) was purchased from Sigma (Cat. No. D5011). 4. Experimental methods: In this experiment, the thermal shift method was used to measure the change in the melting temperature (Tm) of the PRMT5/MEP50-MTA protein complex before and after compound binding, thereby characterising the ability of the compound to improve the thermal stability of the PRMT5/MEP50-MTA protein complex. A solution containing 50 mM HEPES, 10 mM DTT, 2 µM MTA, SYPRO Orange and 250 mM NaCl was prepared as the experimental buffer. Human PRMT5/MEP50 protein was added to a final concentration of 2 µM, and the mixture was incubated at room temperature for 30 minutes. The above reaction mixture was aliquoted into 8-strip PCR tubes at 19.5 µL per tube. Then 0.5 µL of test compound or DMSO was added to each tube, providing a total reaction volume of 20 µL and a final compound concentration of 8 µM. 2.5% DMSO was set as the vehicle control. After incubation at room temperature for 10 minutes, the PCR tubes were placed in a PCR instrument, and the melt curve function was selected to measure the melting temperature of the PRMT5/MEP50-MTA protein complex in different treatment groups (heated from 25°C to 95°C, 0.03°C/s). 5. Experimental data processing method: The experimental data files from the PCR instrument were imported into the thermal shift software to obtain the melting temperature (Tm) for each treatment group.
As a reminder, the ΔTm is the shift of the melting midpoint relative to a reference. Regarding `CNN(C(=O)c1cc2c3c(c(N)nc2cc1F)COC3)C1COCc2nc(C(F)(F)F)ccc21` (racemic) [Example 306], the ΔTm at 8 µM turned out to be 12.7 °C.
In the case of `CNN(C(=O)c1cc2c(cn1)nc(N)c1cncn12)C1COc2cc(S(F)(F)(F)(F)F)ccc21` (racemic) [Example 385, 4-Amino-N'-methyl-N-(6-(pentafluoro-6-sulphanyl)-2,3-dihydrobenzofuran-3-yl)imidazo [1,5-a] pyrido [3,4-e] pyrazine-8-carbohydrazide], the ΔTm at 8 µM came to 11.6 °C.
On to `CNN(C(=O)c1ccc2nc(N)c3cnn(C)c3c2c1)C1COc2cc(S(F)(F)(F)(F)F)ccc21` (racemic) [Example 450, 4-Amino-N',1-dimethyl-N-(6-(pentafluoro-6-sulphanyl)-2,3-dihydrobenzofuran-3-yl)-1H-pyrazolo[4,3-c]quinoline-8-carbohydrazide], for which the ΔTm at 8 µM stood at 12 °C.
Turning to `[2H]C([2H])([2H])NN(C(=O)c1cc2c3c(c(N)nc2cc1C)COC3)C1COCc2c1ccn1c(C(F)(F)F)cnc21` (single isomer, unassigned) [Example 357-P1], the “ΔTm (°C)” value came to 12.45 °C.
Consider `CNN(C(=O)c1cc2c(cn1)nc(N)c1cncn12)C1COc2cc(S(F)(F)(F)(F)F)ccc21` (single isomer, unassigned) [Example 385-P1], for which the ΔTm at 8 µM came to 14 °C.
`CNN(C(=O)c1cc2c(cn1)nc(N)c1cncn12)C1COc2cc(S(F)(F)(F)(F)F)ccc21` (single isomer, unassigned) [Example 385-P2]: the “ΔTm (°C)” value was found to be 12.31 °C.
Consider `CN(C(=O)c1ccc2nc(N)c3cnn(C)c3c2c1)[C@@H]1COCc2c1ccn1cc(Br)nc21` [Example 37-P1, (S)-4-amino-N-(2-bromo-7,10-dihydro-8H-imidazo[1,2-a]pyrano[3,4-c]pyridin-7-yl)-N,1-dimethyl-1H-pyrazolo[4,3-c]quinoline-8-carboxamide], for which the ΔTm at 8 µM is 10.5 °C.
`Cc1cc2nc(N)c3cncn3c2cc1C(=O)N(C)C1COCc2c1ccn1cc(C(F)(F)F)nc21` (stereo not shown) [Example 39, 4-Amino-N,7-dimethyl-N-(2-(trifluoromethyl)-7,10-dihydro-8H-imidazo[1,2-a]pyrano[3,4-c]pyridin-7-yl)imidazo[1,5-a]quinoxaline-8-carboxamide]: the ΔTm at 8 µM came out at 11.7 °C.
For the compound `Cc1cc2nc(N)c3cncn3c2cc1C(=O)N(C)C1COCc2c1ccc1nc(C(F)(F)F)cn21` (stereo not shown) [Example 48, 4-Amino-N,7-dimethyl-N-(8-(trifluoromethyl)-3,4-dihydro-1H-imidazo[1,2-a]pyrano[4,3-e]pyridin-4-yl)imidazo[1,5-a]quinoxaline-8-carboxamide], the ΔTm at 8 µM stood at 11.7 °C.
Regarding `CN(C(=O)c1ccc2nc(N)c3cnn(C)c3c2c1)C1COCc2c1ccc1cc(C(F)(F)F)cnc21` (stereo not shown) [Example 68, 4-Amino-N,1-dimethyl-N-(3-(trifluoromethyl)-7,10-dihydro-8H-pyrano[4,3-h]quinolin-7-yl)-1H-pyrazolo[4,3-c]quinoline-8-carboxamide], the ΔTm at 8 µM was determined as 10.4 °C.
With `CN(C(=O)c1ccc2nc(N)c3cnn(C)c3c2c1)C1COCc2c1ccc1nc(C(F)(F)F)cn21` (stereo not shown) [Example 81, 4-Amino-N,1-dimethyl-N-(8-(trifluoromethyl)-3,4-dihydro-1H-imidazo[1,2-a]pyrano[4,3-e]pyridin-4-yl)-1H-pyrazolo[4,3-c]quinoline-8-carboxamide], the ΔTm at 8 µM was determined as 10.4 °C.
Same read-out and setting: to `Cc1cc2nc(N)c3cncn3c2cc1C(=O)N(C1CC(=C(F)F)C1)C1COCc2c1ccn1c(C(F)(F)F)cnc21` (stereo not shown) [Example 144, 4-Amino-N-[3-(difluoromethylene)cyclobutyl]-7-methyl-N-[5-(trifluoromethyl)-12-oxa-3,6-diazatricyclo[7.4.0.02,6]trideca-1(9),2,4,7-tetraen-10-yl]imidazo[1,5-a]quinoxaline-8-carboxamide] belongs 10.2 °C.
For `Cc1cc2nc(N)c3cncn3c2cc1C(=O)N(C)C1COCc2c1ccn1c(N=S(C)(C)=O)cnc21` (stereo not shown) [Example 146, 4-Amino-N-(3-((dimethyl(carbonyl)-16-sulphanylidene)amino)-7,10-dihydro-8H-imidazo[1,2-a]pyrano[3,4-c]pyridin-7-yl)-N,7-dimethylimidazo[1,5-a]quinoxaline-8-carboxamide], the ΔTm at 8 µM is 10.2 °C.
On the same count and under the same terms, the same measure for `CN(C(=O)c1cc2c(cc1F)nc(N)c1cncn12)C1COCc2c1ccn1c(C(F)(F)F)c(C(=O)N3CC(=C(F)F)C3)nc21` (stereo not shown) [Example 234, 4-Amino-N-(2-(3-(difluoromethylene)azetidine-1-carbonyl)-3-(trifluoromethyl)-7,10-dihydro-8H-imidazo[1,2-a]pyrano[3,4-c]pyridin-7-yl)-7-fluoro-N-methylimidazo[1,5-a]quinoxaline-8-carboxamide]: 10.9 °C; for `CN(C(=O)c1cc2c(cc1F)nc(N)c1cncn12)C1COCc2c1ccn1c(C(F)=C3CCCCC3)cnc21` (stereo not shown) [Example 240, 4-Amino-N-(3-(cyclohexylidenefluoromethyl)-7,10-dihydro-8H-imidazo[1,2-a]pyrano[3,4-c]pyridin-7-yl)-7-fluoro-N-methylimidazo[1,5-a]quinoxaline-8-carboxamide]: 10.8 °C.
Consider `CNN(C(=O)c1cc2c(cc1C)nc(N)c1cncn12)C1COCc2nc(C(F)(F)F)ccc21` (stereo not shown) [Example 278, 4-Amino-N',7-dimethyl-N-(2-(trifluoromethyl)-5,8-dihydro-6H-pyrano[3,4-b]pyridin-5-yl)imidazo[1,5-a]quinoxaline-8-carbohydrazide], for which the ΔTm at 8 µM was 12.7 °C.
The same measure, in the same setting: to `CNN(C(=O)c1cc2c(cc1C)nc(N)c1cncn12)[C@@H]1COCc2nc(C(F)(F)F)ccc21` [Example 278-P1, (S)-4-amino-N',7-dimethyl-N-(2-(trifluoromethyl)-5,8-dihydro-6H-pyrano[3,4-b]pyridin-5-yl)imidazo[1,5-a]quinoxaline-8-carbohydrazide] belongs 12.6 °C; to `Nc1nc2cc(F)c(C(=O)N(N)C3COCc4nc(C(F)(F)F)ccc43)cc2n2cncc12` (stereo not shown) [Example 280, 4-Amino-7-fluoro-N-(2-(trifluoromethyl)-5,8-dihydro-6H-pyrano[3,4-b]pyridin-5-yl)imidazo[1,5-a]quinoxaline-8-carbohydrazide], 10.9 °C.
`CNN(C(=O)c1cc2c(cc1C)nc(N)c1cncn12)C1COCc2c1ccn1c(C(F)(F)F)cnc21` (stereo not shown) [Example 281, 4-Amino-N',7-dimethyl-N-(3-(trifluoromethyl)-7,10-dihydro-8H-imidazo[1,2-a]pyrano[3,4-c]pyridin-7-yl)imidazo[1,5-a]quinoxaline-8-carbohydrazide]: the ΔTm at 8 µM was 12.7 °C.
For `CNN(C(=O)c1cc2c3c(c(N)nc2cn1)COC3)C1COCc2nc(C(F)(F)F)ccc21` (stereo not shown) [Example 286, 4-Amino-N'-methyl-N-(2-trifluoromethyl-5,8-dihydro-6H-pyrano[3,4-b]pyridin-5-yl)-1,3-dihydrofuro[3,4-c] [1,7]naphthyridine-8-carbohydrazide], the ΔTm at 8 µM worked out at 10.5 °C.
On the same count and under the same terms, the same measure for `CNN(C(=O)c1cc2c3c(c(N)nc2cn1)COC3)C1COCc2cc(C(F)(F)F)ccc21` (stereo not shown) [Example 298, 4-Amino-N'-methyl-N-(7-(trifluoromethyl)isochroman-4-yl)-1,3-dihydrofuro[3,4-c][1,7]diazanaphthalene-8-carbohydrazide]: 11.4 °C; for `[2H]C([2H])([2H])NN(C(=O)c1cc2c3c(c(N)nc2cn1)C(C)OC3)[C@@H]1COCc2nc(C(F)(F)F)ccc21` (stereo partly shown) [Example 322]: 10.7 °C; for `[2H]C([2H])([2H])NN(C(=O)c1cc2c3c(c(N)nc2cn1)COC3)C1([2H])COCc2c1ccn1c(C(F)(F)F)cnc21` (stereo not shown) [Example 354, 4-Amino-N'-(methyl-d3)-N-(3-(trifluoromethyl)-7,10-dihydro-8H-imidazo[1,2-a]pyrano[3,4-c]pyridin-7-yl-7-d)-1,3-dihydrofuro[3,4-c][1,7]naphthyridine-8-carbohydrazide]: 10.8 °C.
